In brackets after ≈: the same amount, converted by molar mass. Bounds are passed on as bounds.

The source of these data is US10227362B2 (priority 2015, dated 2019).

What all share (assay type): cell-based
Experiment [1] has as its system Mycobacterium bovis BCG strain TMC1019 (ATCC35737). Kind of experiment: microbe, parasite or virus in culture. The conditions noted are these: Mycobacterium tuberculosis variant bovis BCG, 24 h, read-out: M. bovis ATCC35737 (ug/mL).
Experiment [2] concerns Mycobacterium tuberculosis H37Rv strain. Kind of experiment: In vitro MIC against M. tuberculosis H37Rv strain (MABA, Alamar Blue). The method, then: Part I: The in vitro efficacy of anti-Mycobacterium tuberculosis compounds was tested using H37Rv strain.
On the day of the test, the compound was dissolved in pure DMSO (Sigma 276855-2L) to a concentration of 10 mg/mL which was used as the mother liquor of the compound. 30 μL of DMSO was added to wells of column 2 to 11 s of the v-bottom 96-well plates (Axygen-wipp02280). 30 μL of the mother liquor of the compound was added to the well of column 2, after mixing, 30 μL was taken from the well of column 2 and added to the well of column 3, and then pipetted and mixed. The operation was taken to column 10. Column 11 was free of medicine and contained only 30 μL of DMSO. This was the “motherplate” of the compound. From column 2 to 11, the corresponding concentration of the compound was 5, 2.5, 1.25, 0.625, 0.3125, 0.156, 0.078, 0.039, 0.02, 0 mg/mL. […] A flat bottom 96-well plate (Greiner 655090) was used as a “daughterplate”. 98 μL of 7H9 (Sigma M0178) medium was added to the wells of all daughterplates. 2 μL of compound was extracted from the motherboard and added to the corresponding daughter plate. Line A and H, column 1 and 12 of the daughterplate contained only 7H9 medium.
The H37Rv strain in the glycerol cryovial was inoculated into 7H9 medium containing 0.05% Tween 80 and cultured for 4 weeks at 37° C. in a shaker with 200 rpm. The bacterial liquid was washed twice with 7H9 medium containing 0.05% Tween 80 and resuspended in the same medium. The absorbance of the bacteria liquid was adjusted to OD550=0.4-0.5 using the same medium. The bacteria liquid was sub-packed in microcentrifuge tubes and stored at −80° C. Storage time was no more than 1 month. On the day of the test, the packaged bacteria liquid would be […]. The bacteria liquid was diluted 20 times and then diluted 50 times with 7H9 medium, and a total of 1000 times dilution. The bacteria liquid would be used to inoculate on the daughterplate. 100 μL of bacterial liquid was inoculated in each well of the daughterboard, 100 μL 7H9 medium was added to column 12 and without bacteria liquid.
The test daughterplate was placed in an incubator at 37° C. and the humidity was maintained at >80%. A week later, 12.5 μL of 7H9 medium containing 20% Tween 80 and 20 μL of Alamar Blue (Invitrogen DAL1100) were added to the well of a column 1 containing bacteria and the well of a column 12 without bacteria every day, and then continue to incubate for 24 hours and observed. When the added Alamar Blue was reduced to pink in 24 hours by the bacteria liquid in the well of column 1, the 7H9 medium containing 20% Tween 80 and Alamar Blue were added to all wells on the test plate and the fluorescence values were measured after incubation for 24 hours at 37° C.

The test system of another experiment is M. tuberculosis H37R. Kind of experiment: M. tuberculosis LORA MIC. The conditions noted are these: Mycobacterium tuberculosis, read-out: M. tuberculosis H37R LORA (MIC) (ug/mL).
For the next experiment, the system named is Vero Cell. Kind of experiment: Vero cell cytotoxicity. Conditions: Chlorocebus sabaeus, Vero cells.

Consider `C[C@]1(CN2CCc3nc(-c4ccc(F)cc4)oc3C2)Cn2cc([N+](=O)[O-])nc2O1` [Compound 61, (S)-2-(4-Fluorophenyl)-5-((2-methyl-6-nitro-2,3-dihydroimidazo[2,1-b]oxazol-2-yl)methyl)-4,5,6,7-tetrahydrooxazolo[5,4-c]pyridine], for which the MIC in experiment [1] is below 1 µg/mL; in experiment [2] it was below 1 µg/mL; with M. tuberculosis H37R, 1 to 32 µg/mL (≈ 2.5 to 80.1 µM). Moreover, the IC50 (commonly the concentration that gives 50% inhibition) in the experiment on Vero Cell was above 32 µg/mL.
Turning to `C[C@]1(CN2CCc3nc(-c4cc(F)cc(F)c4)ccc3C2)Cn2cc([N+](=O)[O-])nc2O1` [Compound 14, (S)-2-((2-(3,5-Difluorophenyl)-7,8-dihydro-1,6-naphthyridin-6(5H)-yl)methyl)-2-methyl-6-nitro-2,3-dihydroimidazo[2,1-b]oxazole], the MIC in experiment [1] was below 1 µg/mL; in experiment [2] it was below 1 µg/mL; in the experiment with M. tuberculosis H37R, 1 to 32 µg/mL (≈ 2.34 to 74.9 µM). Further, in the experiment on Vero Cell, the IC50 was above 32 µg/mL.
For `C[C@]1(CN2CCc3nc(-c4ccc(Cl)c(F)c4)ccc3C2)Cn2cc([N+](=O)[O-])nc2O1` [Compound 20, (S)-2-((2-(4-Chloro-3-fluorophenyl)-7,8-dihydro-1,6-naphthyridin-6(5H)-yl)methyl)-2-methyl-6-nitro-2,3-dihydroimidazo[2,1-b]oxazole], the values for the MIC (in experiment [1]; in experiment [2]; with M. tuberculosis H37R) were below 1 µg/mL, below 1 µg/mL and 1 to 32 µg/mL (≈ 2.25 to 72.1 µM), respectively. Also, the 50% inhibitory concentration (IC50) in the experiment on Vero Cell was above 32 µg/mL.
With `C[C@]1(CN2Cc3nc(-c4ccc(F)c(F)c4)sc3C2)Cn2cc([N+](=O)[O-])nc2O1` [Compound 71, (S)-2-((2-(3,4-Difluorophenyl)-4H-pyrrolo[3,4-d]thiazol-5(6H)-yl)methyl)-2-methyl-6-nitro-2,3-dihydroimidazo[2,1-b]oxazole], the MIC in experiment [1] and in experiment [2] was below 1 µg/mL throughout. In the experiment with Vero Cell, this compound gave an IC50 above 32 µg/mL.
`C[C@]1(CN2Cc3nc(-c4ccc(F)cc4Cl)sc3C2)Cn2cc([N+](=O)[O-])nc2O1` [Compound 77, (S)-2-((2-(2-chloro-4-fluorophenyl)-4H-pyrrolo[3,4-d]thiazol-5(6H)-yl)methyl)-2-methyl-6-nitro-2,3-dihydroimidazo[2,1-b]oxazole]: the MIC in experiment [1] and in experiment [2] was below 1 µg/mL throughout. Besides, the IC50 with Vero Cell is above 32 µg/mL.
For `C[C@]1(CN2CCCc3nc(-c4ccc(F)cc4)ccc3C2)Cn2cc([N+](=O)[O-])nc2O1` [Compound 96, (S)-2-((2-(4-Fluorophenyl)-8,9-dihydro-5H-pyrido[3,2-c]azepin-6(7H)-yl)methyl)-2-methyl-6-nitro-2,3-dihydroimidazo[2,1-b]oxazole], the MIC in experiment [1] was below 1 µg/mL; in experiment [2], below 1 µg/mL; in the experiment with M. tuberculosis H37R it was 1 to 32 µg/mL (≈ 2.36 to 75.6 µM). In the experiment on Vero Cell, this compound displayed an IC50 above 32 µg/mL.
For the compound `C[C@]1(CN2CCc3sc(-c4ccc(F)cc4)nc3C2)Cn2cc([N+](=O)[O-])nc2O1` [Compound 67, (S)-2-((2-(4-Fluorophenyl)-6,7-dihydrothiazolo[4,5-c]pyridin-5(4H)-yl)methyl)-2-methyl-6-nitro-2,3-dihydroimidazo[2,1-b]oxazole], the MIC in experiment [1] and in experiment [2] was below 1 µg/mL throughout. Besides, the 50% inhibitory concentration (IC50) in the experiment with Vero Cell is above 32 µg/mL.
With `C[C@]1(CN2CCc3nc(-c4ccc(F)c(F)c4)ccc3C2)Cn2cc([N+](=O)[O-])nc2O1` [Compound 12, (S)-2-((2-(3,4-Difluorophenyl)-7,8-dihydro-1,6-naphthyridin-6(5H)-yl)methyl)-2-methyl-6-nitro-2,3-dihydroimidazo[2,1-b]oxazole], the MIC in experiment [1] was below 1 µg/mL; in experiment [2], below 1 µg/mL; in the experiment on M. tuberculosis H37R it was 1 to 32 µg/mL (≈ 2.34 to 74.9 µM). The compound further displayed a half-maximal inhibitory concentration (IC50) with Vero Cell above 32 µg/mL.
Turning to `C[C@]1(CN2CCc3nc(-c4ccccc4F)ccc3C2)Cn2cc([N+](=O)[O-])nc2O1` [Compound 5, (S)-2-((2-(2-Fluorophenyl)-7,8-dihydro-1,6-naphthyridin-6(5H)-yl)methyl)-2-methyl-6-nitro-2,3-dihydroimidazo[2,1-b]oxazole], the values for the MIC (in experiment [1]; in experiment [2]; in the experiment with M. tuberculosis H37R) were below 1 µg/mL, below 1 µg/mL and 1 to 32 µg/mL (≈ 2.44 to 78.2 µM), respectively. The IC50 with Vero Cell was above 32 µg/mL.
`CN(c1ccc(F)cc1)c1nc2c(s1)CN(C[C@@]1(C)Cn3cc([N+](=O)[O-])nc3O1)C2` [Compound 85, (S)—N-(4-Fluorophenyl)-N-methyl-5-((2-methyl-6-nitro-2,3-dihydroimidazo[2,1-b]oxazol-2-yl)methyl)-5,6-dihydro-4H-pyrrolo[3,4-d]thiazol-2-amine]: the MIC in experiment [1] and in experiment [2] was below 1 µg/mL throughout. Besides, the IC50 in the experiment with Vero Cell is above 32 µg/mL.
Regarding `C[C@]1(CN2CCc3nc(-c4ccco4)ccc3C2)Cn2cc([N+](=O)[O-])nc2O1` [Compound 25, (S)-2-((2-(Furan-2-yl)-7,8-dihydro-1,6-naphthyridin-6(5H)-yl)methyl)-2-methyl-6-nitro-2,3-dihydroimidazo[2,1-b]oxazole], the values for the MIC (in experiment [1]; in experiment [2]; in the experiment on M. tuberculosis H37R) were below 1 µg/mL, below 1 µg/mL and 1 to 32 µg/mL (≈ 2.62 to 83.9 µM), respectively. This compound also returned an IC50 in the experiment on Vero Cell above 32 µg/mL.
Consider `C[C@]1(CN2CCc3nc(-c4ccc(F)cc4F)ccc3C2)Cn2cc([N+](=O)[O-])nc2O1` [Compound 13, (S)-2-((2-(2,4-Difluorophenyl)-7,8-dihydro-1,6-naphthyridin-6(5H)-yl)methyl)-2-methyl-6-nitro-2,3-dihydroimidazo[2,1-b]oxazole], for which the figures for the MIC (in experiment [1]; in experiment [2]; with M. tuberculosis H37R) were below 1 µg/mL, below 1 µg/mL and 1 to 32 µg/mL (≈ 2.34 to 74.9 µM), respectively. The compound further displayed a 50% inhibitory concentration (IC50) in the experiment with Vero Cell above 32 µg/mL.
`C[C@]1(CN2CCc3nc(-c4ccc(C(F)(F)F)cc4)ccc3C2)Cn2cc([N+](=O)[O-])nc2O1` [Compound 10, (S)-2-Methyl-6-nitro-2-((2-(4-(trifluoromethyl)phenyl)-7,8-dihydro-1,6-naphthyridin-6(5H)-yl)methyl)-2,3-dihydroimidazo[2,1-b]oxazole]: the MIC in experiment [1] and in experiment [2] was below 1 µg/mL each time. In addition, in the experiment on Vero Cell, the half-inhibitory concentration (IC50) is above 32 µg/mL.
In the case of `C[C@]1(CN2CCc3nc(-c4cccc(F)c4)ccc3C2)Cn2cc([N+](=O)[O-])nc2O1` [Compound 6, (S)-2-((2-(3-Fluorophenyl)-7,8-dihydro-1,6-naphthyridin-6(5H)-yl)methyl)-2-methyl-6-nitro-2,3-dihydroimidazo[2,1-b]oxazole], the MIC in experiment [1] was below 1 µg/mL; in experiment [2], below 1 µg/mL; in the experiment with M. tuberculosis H37R it was 1 to 32 µg/mL (≈ 2.44 to 78.2 µM). In the experiment on Vero Cell, this compound displayed a 50% inhibitory concentration (IC50) above 32 µg/mL.
